For series [1] the following is noted: in PBS (pH 7.4) at 37°±1° C., n=6; cited from earlier work.
The conditions of series [2]: modified Ussing chambers; cited from earlier work.
The format of series [3] is in vitro ADME, porcine. The settings on record: pig, 360 min. An excerpt:
FIG. 41B depicts a comparison of individual adrenergic receptor interacters in terms of amount permeated as a function of time.
FIG. 41C depicts ex vivo permeation as a function of time of different adrenergic receptor interacters in DESF compositions. The ex-vivo permeation in this example involved the exposure of porcine buccal tissue to formulations varying with regard to permeation enhancer(s) used and API concentration. […] Amount permeated increases with eugenol content, where eugenol contents in both test formulations were lower than that used in the control.
Ex-vivo permeation involved the exposure of porcine buccal tissue to formulations varying with regard to permeation enhancer(s) used and API concentration. […] Amount permeated increased with eugenol content, where eugenol contents in both test formulations were lower than that used in the control.

A short description of series [4]: Ex vivo permeation of epinephrine, Franz diffusion cell. As for the experimental part: A franz diffusion cell is obtained and prepared.
If testing films, one can perform the following next steps: (1) weigh films, punch to match diffusion area (or smaller), reweigh, record pre- and post-punching weight; (2) wet a donor area with approximately 100 μL of phosphate buffer; (3) place film on a donor surface, top with 400 μL of phosphate buffer, and start timers.
The tissue is dermatomed to precise thickness. • 4. […] The media is selected to ensure sink conditions. • 5.

For series [5] the following is noted: concentration ranges explored.
Excerpt: In this example, acidic conditions were explored for the ability to promote stability.
Series [6] in a line: AQST-109 single and repeat dose PK vs EpiPen and 0.3 mg IM (AQ109201). Particulars: for AUC(0-t) / Cmax / Tmax: human, plasma, intramuscular, 0.3 mg. Format: in vivo, human. On the procedure: Referring to FIG. 35, the study was a controlled study in healthy volunteers. […] However, the need and use of a second dose can be quite rare. […] Within this context, a post hoc analysis was performed.

The nature of series [7]: AQST-109 12 mg residence time / food / swallowed film PK study. Format: in vivo, human. Particulars: for Cmax / AUC(0-t): AQST-109 12 mg (N = 48 doses), Epinephrine IM Injection 0.3 mg (N = 48 doses). As for the experimental part: In this example, three different residence times were tested. The 4 minute residence time is shown in circle data points. The 2 minute residence time is shown in downward pointing triangle data points. The 0 minute residence time is shown in upward pointing triangle data points.
The purpose of this investigation was to continue to study the administration of the film under a variety of conditions and further characterize its pharmacokinetics, pharmacodynamics, and safety. The final two arms of the study were designed to assess the impact of (1) administering the film sublingually two minutes after consuming food—in this case, a peanut butter sandwich, and (2) swallowing the film whole immediately with 240 mL of water. The control arm used for reference was the optimized sublingual film administration with a four-minute residence time.

A short description of series [8]: AQ109201 safety, adverse events. In kind it is in vivo, human.
Series [9] is described as follows: Pilot PK study of auto-injectors vs 0.3 mg manual IM injection. In kind it is in vivo. Particulars: human, plasma, intramuscular, 27 healthy subjects, crossover.
The next series is described as follows: in vivo. As for the experimental part: The study compared various dose routes: sublingual (SL), per oral tablet (PO), subcutaneous (SC) and intravenous (IV). […] An Oral Irritation assessment was performed (SL film group): Predose (0) and 24 hr postdose by Draize scoring.
The mark [10] stands for this setting: single dose: 12 mg, 0.3 mg, EpiPen.

Marks after values point to notes of the source that are not given here. A value given as a limit tells only on which side of the number the result lay.

In the case of `CC(C)NCC(O)COc1cccc2ccccc12` (stereo not shown) [PP], the “C0 of saturated solution” value in [1] was 588.005 ± 5.852 ng/mL.
Consider `Cn1c(=O)c2c(ncn2C)n(C)c1=O` [caffeine], for which, in series [2], the “permeability through buccal epithelium compared with full thickness buccal tissue” value is 1.8 fold.
`Cc1ccc(C(C)(C)O)cc1` [cherry propanol, 2-(4-methylphenyl)propan-2-ol]: the amount permeated in series [3] lay in the range of 0 to 50 µg.
In turn, `C=CCc1ccc(O)c(OC)c1` [eugenol] yielded an amount permeated in [3] of 50 to 275 µg.
Take `CNC[C@H](O)c1ccc(O)c(O)c1` [Epinephrine Base]: the “Average Steady State Flux” value in series [4] (conc 4.4 mg/mL, solubilized in situ) was found to be 0.512 ug/cm^2*min.
Compound `OCc1ccccc1` [benzyl alcohol] yielded an amount permeated in [3] of 50 to 100 µg.
Take `CNC[C@H](O)c1ccc(O)c(O)c1` [Epinephrine Bitartrate]: the “inherent pH in solution” value in series [5] was 4.5-5. In addition, the “permeation as a function of solution pH” value in series [4] is on record as “slightly favorable”. The Theoretical enhancement in series [4] (8 mg/mL) worked out at 2; in series [4] (16 mg/mL), 4; in series [4] (100 mg/mL) it was 25. The average amount permeated in series [4] (30 min, 16 mg/mL) amounted to 0; in series [4] (45 min, 16 mg/mL), 2.5; in series [4] (60 min, 16 mg/mL), 5.5; in [4] (120 min, 16 mg/mL) it was 31.33; in [4] (180 min, 8 mg/0.500 mL), 72.67; in [4] (240 min, 16 mg/mL), 112.2. In addition, the average amount permeated in series [4] (300 min, 16 mg/mL) worked out at 160.2; in [4] (360 min, 16 mg/mL), 213.3. Further, the average flux in series [4] (30 min, 16 mg/mL) amounted to 0 μg/cm^2 * min; in [4] (45 min, 16 mg/mL) it was 0.2604 μg/cm^2 * min; in series [4] (60 min, 16 mg/mL), 0.3125 μg/cm^2 * min; in [4] (120 min, 16 mg/mL), 0.6727 μg/cm^2 * min; in series [4] (180 min, 8 mg/mL), 1.076 μg/cm^2 * min; in series [4] (240 min, 16 mg/mL), 1.029 μg/cm^2 * min. The average flux stood at 1.25 μg/cm^2 * min in series [4] (300 min, 16 mg/mL) and 1.385 μg/cm^2 * min in [4] (360 min, 16 mg/mL). In addition, the “Average Steady State Flux” value in [4] (360 min, 4 mg/mL) came out at 0.167 ug/cm^2*min; in series [4] (360 min, 8 mg/mL), 0.466 ug/cm^2*min; in [4] (360 min, 100 mg/mL) it was 2.942 ug/cm^2*min. The “steady state flux average” value in [4] (360 min, 16 mg/mL) came out at 1.317.
Consider `C=CCc1ccc(O)c(OC)c1` [100% Eugenol], for which, in series [4], the “Permeability Coefficient” value came out at 38.4 ×10⁻⁶ cm/s.
As to `CNC[C@H](O)c1ccc(O)c(O)c1` [Epinephrine IM Injection, epinephrine], the AUC(0-t) in series [6] (AUC 0-30 min, Repeat Dose (10 min)) came to 0.067 ng·h/mL; in series [6] (Repeat Dose (10 min), read-out: AUC0-45 min), 0.181 ng·h/mL; in series [6] (Repeat Dose (10 min), read-out: AUC 0-t) it was 1.3 ng·h/mL; in series [7] (human, plasma, im, 0.3 mg, AUC 0-20 minutes) it was 0.023 ng·h/mL; in series [7] (human, plasma, im, 0.3 mg, AUC 0-30 minutes), 0.0475 ng·h/mL. In addition, the Cmax in [6] (Repeat Dose (10 min), geometric mean, read-out: Cmax) was 0.755 ng/mL; in [6] (after one dose, read-out: maximum concentration, CMax), 0.489 ng/mL; in series [6] (after two doses, second dose ten minutes after the first, read-out: maximum concentration, CMax) it was 0.911 ng/mL; in series [7] (human, plasma, im, 0.3 mg, read-out: Arithmetic Mean Cmax), 0.397 ng/mL; in series [7] (human, plasma, im, 0.3 mg, read-out: Geometric Cmax), 0.351 ng/mL; in [9] (read-out: geometric mean Cmax), 0.344 ng/mL. Also, the Tmax in [6] (Repeat Dose (10 min), read-out: Tmax (median) (converted)) was 50 min; in [6] (Repeat Dose (10 min), read-out: Tmax Range), 30 to 70 min; in series [6] (single dose administration, read-out: Tmax (median) (converted)), 45 min; in series [7] (human, plasma, im, 0.3 mg, read-out: median time to maximum concentration (Tmax) (converted)) it was 50 min; in series [9] (read-out: median Tmax (converted)), 50 min. In addition, the “time after second dose administration until impact on PK profile” value in series [6] (repeat dosing) is on record as “over 20 min”. For the same compound, in series [7] (AQST-109 at 4-minute residence, 0.3 mg IM injection), the “median time to reach 100 pg/mL” value was 10 min. Further, the Cardiac disorders was 1 (4.3) n (%) in series [8] (repeat dose: 24 mg (N = 23), 0.6 mg (N = 23)) and 1 (4.3) n (%) in [8] (single dose: 12 mg (N = 23), 0.3 mg (N = 23), EpiPen (N = 22)). The Palpitations in series [8] (repeat dose: 24 mg, 0.6 mg) was 1 (4.3) n (%); in series [8] (setting [10]) it was 1 (4.3) n (%). Besides, the Ventricular extrasystoles is given as 1 (4.3) n (%) in [8] (repeat dose: 24 mg, 0.6 mg) and 0 n (%) in [8] (setting [10]).
In the case of `CNC[C@H](O)c1ccc(OC(=O)C(C)(C)C)c(OC(=O)C(C)(C)C)c1` (racemic) [Dipi Solution, dipivefrin], in “in vivo”, the “% Boiavailability (DIPI AUC0-t)” value stood at 128.5% and the “% Boiavailability (EPI AUC0-t)” value was 131.0%. Further, in “in vivo” (iv), the “time until cleared from the system” value was at most 2 h. Besides, in “in vivo” (iv, 1 mg), the AUC(0-t) was 0.887 ng·h/mL, the Cmax is 11.7 ng/mL and the “EPI Cmax (mean)” value stood at 7.62 ng/mL. For the same compound, in “in vivo” (po, 6 mg), the “DIPI AUC0-t” value amounted to 0, the “EPI Cmax (mean)” value came to 0.28 ng/mL, the “EPI Tmax” value was 120 min and the Tmax stood at 0 min. Further, in “in vivo” (sc, 22 mg), the AUC(0-t) is 25.1 ng·h/mL, the Cmax came to 15 ng/mL, the “EPI Cmax (mean)” value came out at 12.5 ng/mL and the “EPI Tmax” value amounted to 180 min. The Tmax in “in vivo” (sc, 22 mg) is 5 min.
Take `C=CCc1ccc(O)c(OC)c1` [3% Eugenol]: the “Permeability Coefficient” value in series [4] is 7.43 ×10⁻⁶ cm/s.
As to `C=CCc1ccc(O)c(OC)c1` [0.3% Eugenol], in [4], the “Permeability Coefficient” value worked out at 4.14 ×10⁻⁶ cm/s.

(Values after patent US20240016734A1 (Aquestive Therapeutics, Inc., priority 2022, published 2024).)
